# Test system: SK-HEP-1 cells
# Experiment: SK-HEP-1 cell growth (trypan blue-excluding adherent cells counted) and apoptosis
# Type: cell-based, human
# Details: NSC-87877 50 μM with 1 μM orexin-A, 48 h
# Protocol: FIG. 1. […] SK-HEP-1 cells were challenged with (black) or without (white) 1 μM orexin-A for 48 h in the absence (wo) or presence of NSC-87877 (50 μM). At the end of the treatment, adherent cells were trypsinized, and cells excluding trypan blue were counted to measure SK-HEP-1 cell growth. Panel B : Effect of orexin-A inoculation on the growth of tumors developed by xenografting human HCC cancer cells SK-HEP-1 in nude mice. SK-HEP-1 cells were inoculated in the flank of nude mice at day 0. Mice were 2 times a week injected intraperitoneally with 100 μL of orexin-A (0,23 μmol/kg) solutions starting at day 0 (white circle) or day 22 (triangle) or with […] of PBS (black circle) for controls.
# Orexins are hypothalamic peptides involved in sleep/wake control. We have shown that orexins promote robust apoptosis in colorectal cancer cells (Voisin T, El Firar A, Fasseu M, Rouyer-Fessard C, Descatoire V, Walker F, Paradis V, Bedossa P, Henin D, Lehy T, Laburthe M. (2011) Aberrant expression of OX1 receptors for orexins in colon cancers and liver metastases: an openable gate to apoptosis. Cancer Res. 71:3341-51.). […]
compound,measurement,value
O=S(=O)(O)c1ccc2cc(N=Nc3cc(S(=O)(=O)O)c4cccnc4c3O)ccc2c1 [NSC-87877],block of orexin-induced SK-HEP-1 growth inhibition,blocks orexin-induced SK-HEP-1 growth inhibitory
same,reversal of orexin-induced apoptosis,reverse orexin-induced apoptosis
